Test results reported in ChEMBL document CHEMBL1201862, “PubChem BioAssay data set” (2004).
Where a name gives a salt, the structure may show the parent alone. Activity calls are given as the source filed them. Rule as the data show it, for most assays here: actives have a measured EC50 and inactives only a lower limit.

Key:
[1] = target: T1, Corticotropin-releasing factor receptor 2/Corticotropin-releasing factor-binding protein (Homo sapiens, UniProt P24387+Q13324); test: Dose Response confirmation of uHTS hits for small molecule antagonists of the CRF-binding protein and CRF-R2 receptor complex.; format: functional; conditions: read-out: IC50_Mean
T1 sequence (Q13324 whole entry): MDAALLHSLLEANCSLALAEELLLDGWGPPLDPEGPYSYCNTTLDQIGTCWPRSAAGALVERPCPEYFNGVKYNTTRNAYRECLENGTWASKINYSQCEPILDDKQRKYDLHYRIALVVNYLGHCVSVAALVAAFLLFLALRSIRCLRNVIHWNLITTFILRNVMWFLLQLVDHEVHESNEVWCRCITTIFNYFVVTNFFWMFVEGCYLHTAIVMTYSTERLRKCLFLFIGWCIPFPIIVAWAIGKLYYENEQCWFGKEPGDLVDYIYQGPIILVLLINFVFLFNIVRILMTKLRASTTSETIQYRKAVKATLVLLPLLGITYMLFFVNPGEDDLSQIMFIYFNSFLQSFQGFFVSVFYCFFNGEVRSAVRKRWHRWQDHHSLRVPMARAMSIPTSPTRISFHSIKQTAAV
T1 sequence (P24387 whole entry): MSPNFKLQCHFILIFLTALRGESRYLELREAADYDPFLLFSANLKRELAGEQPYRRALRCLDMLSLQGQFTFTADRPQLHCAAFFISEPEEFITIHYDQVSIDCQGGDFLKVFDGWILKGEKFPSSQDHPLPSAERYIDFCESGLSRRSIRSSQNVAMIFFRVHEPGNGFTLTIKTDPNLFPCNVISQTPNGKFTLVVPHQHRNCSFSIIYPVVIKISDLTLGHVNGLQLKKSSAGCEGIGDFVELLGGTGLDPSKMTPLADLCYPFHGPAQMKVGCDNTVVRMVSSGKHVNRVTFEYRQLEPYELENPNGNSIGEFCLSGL

[2] = target: T1, Corticotropin-releasing factor receptor 2/Corticotropin-releasing factor-binding protein; test: activators of CRF receptor 2 with binding protein – uHTS hits, confirmation (AID 602473); format: functional; conditions: read-out: EC50_Mean
[3] = tested on: Streptococcus sp. 'group A'; test: growth inhibition of control SK(-) GAS strain, dose response, counter-screen for streptokinase expression inhibitor project, luminescence, kanamycin, BacTiterGlo, confirmation (AID 1900); format: functional, organism-based
Streptokinase A = target: T2, Streptokinase A (Streptococcus pyogenes serotype M1, UniProt P10520); test: S. pyogenes streptokinase expression inhibitors, potency, dose response, plasminogen activation absorbance, OD405 (AID 1914); format: functional, Streptococcus pyogenes M1 GAS;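 also: secreted streptokinase activity via plasminogen activation per viability signal from cell pellet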
T2 sequence (P10520 whole entry): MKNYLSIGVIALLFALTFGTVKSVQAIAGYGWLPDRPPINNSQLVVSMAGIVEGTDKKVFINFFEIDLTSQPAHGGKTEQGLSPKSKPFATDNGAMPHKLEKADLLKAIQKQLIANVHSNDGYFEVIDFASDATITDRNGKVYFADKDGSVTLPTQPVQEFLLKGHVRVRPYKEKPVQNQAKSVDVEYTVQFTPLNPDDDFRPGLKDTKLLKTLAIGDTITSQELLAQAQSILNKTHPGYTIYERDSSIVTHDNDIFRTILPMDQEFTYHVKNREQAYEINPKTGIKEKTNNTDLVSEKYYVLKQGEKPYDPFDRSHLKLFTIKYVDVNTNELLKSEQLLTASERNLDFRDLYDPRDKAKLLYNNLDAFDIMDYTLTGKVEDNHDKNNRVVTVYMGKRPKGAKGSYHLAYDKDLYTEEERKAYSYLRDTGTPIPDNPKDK

Streptococcus = test: Group A Streptococcus viability loss, dose response, counter-screen for streptokinase expression inhibitor project, luminescence, BacTiterGlo (AID 1915); format: functional, organism-based;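 also: potency for reduction of bacterial viability or growth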
[4] = target: T3, Heat shock factor protein 1 (Mus musculus, UniProt P38532); test: inhibition of MG132-induced HSE-luciferase signal, confirmation, cell-based, NIH3T3, luminescence, dose retest (AID 2382); format: functional;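 also: NIH3T3 fibroblasts with HSF1-driven luciferase reporter stressed by proteasome inhibitor MG132; luminescence from HSF1-driven luciferase expression after 8 hours of MG132 stress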
T3 sequence (P38532 whole entry): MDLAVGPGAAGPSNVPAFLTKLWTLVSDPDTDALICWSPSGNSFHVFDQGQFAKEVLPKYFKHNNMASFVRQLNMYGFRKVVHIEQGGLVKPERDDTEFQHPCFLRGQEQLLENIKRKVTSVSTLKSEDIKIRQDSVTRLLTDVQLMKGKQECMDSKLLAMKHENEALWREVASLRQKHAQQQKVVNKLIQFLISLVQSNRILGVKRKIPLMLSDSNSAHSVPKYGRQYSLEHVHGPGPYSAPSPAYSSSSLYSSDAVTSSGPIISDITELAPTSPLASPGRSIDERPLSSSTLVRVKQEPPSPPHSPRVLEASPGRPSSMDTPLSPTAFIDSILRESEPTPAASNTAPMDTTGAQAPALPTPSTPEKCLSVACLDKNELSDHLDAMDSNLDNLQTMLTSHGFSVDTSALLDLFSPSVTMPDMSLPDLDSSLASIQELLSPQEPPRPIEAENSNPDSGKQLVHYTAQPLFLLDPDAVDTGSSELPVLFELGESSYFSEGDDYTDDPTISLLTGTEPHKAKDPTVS

INS1 = test: beta cell apoptosis inhibitors, cytokine rescue, dose response, luminescence, retest (AID 449756); format: functional, cell-based; conditions: Rattus norvegicus;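 also: cell death triggered by IL-1 beta plus TNF-alpha plus IFN-gamma mixture; protective hits raise ATP signal compared with cytokine alone wells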
[5] = Shn3 3'UTR reporter inhibitors, dose response, cell-based, Clone20 osteoblasts, firefly luciferase, cherry-picked (AID 624132); format: functional;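 also: firefly luciferase luminescence from reporter carrying the Shn3 3'UTR in osteoblasts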
[6] = HepG2 cell cytotoxicity, dose response, cytotoxicity control for Shn3 inhibitor project, CellTiter-Glo, cherry-picked (AID 624134); format: functional, cell-based
[7] = control 3'UTR Renilla luciferase suppression, dose response, counter-screen for Shn3 inhibitor project, cell-based, Clone20-Shn3RL, cherry-picked (AID 624133); format: functional
[8] = target: T3, Heat shock factor protein 1; test: HSF1 potentiators in luciferase reporter cells, confirmation, cell-based, NIH3T3, luminescence, dose retest (AID 435004); format: functional;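 also: stress induced by proteasome inhibitor MG132 added 30 min after compound; luciferase reporter driven by HSF1 response element in NIH3T3 cells; actives raise luminescence as potentiators of the MG132 stress response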
[9] = Luminescence Cell-Based Dose Retest to Confirm Inhibitors of Cancer Stem Cells. [Related pubchem assays (depositor defined):AID2717, AID2721]; format: functional; conditions: Homo sapiens
[10] = inhibitors of firefly luciferase expression or activity, dose response, H4 neuroglioma cells, luminescence (AID 1990); format: functional, cell-based
[11] = Luminescence Cell-Based Dose Response HTS to Identify Inhibitors of 5'UTR Stem-Loop Driven Prion Protein mRNA Translation in H4 Neuroglioblastoma Cells. [Related pubchem assays: 1827 (Project Summary), 1813 (Primary HTS)]; format: functional
[12] = inhibitors of SNCA 5'UTR-driven reporter translation, confirmation, H4 neuroglioma cells, luminescence (AID 1988); format: functional, cell-based
[13] = NIH-3T3 fibroblast cytotoxicity, dose response, cytotoxicity control, cell-based, fluorescence, Alamar Blue, secondary assay (AID 2327); format: functional;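 also: NIH-3T3 mouse fibroblasts cultured with fluconazole at 8 µg/mL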
[14] = C. albicans growth with fluconazole, confirmation, fluorescence, retest (AID 2467); format: functional, cell-based

For `Oc1ccnc2c(Cl)cccc12`, the IC50 [1] was > 47.1 µM (inactive) and the EC50 [2] was > 53 µM (inactive).

For `Cc1cccc(C)c1OC1(c2ccccc2)OC(=O)c2ccccc21` (configuration not stated), the EC50 [3] was 18.4 µM (active), the EC50 (Streptokinase A) was 12.2 µM (active) and the EC50 (Streptococcus) was > 150 µM (not active).

For `COCC1CCCCN1C(=O)c1cc(COc2ccc3ncccc3c2)on1` (configuration not stated), the EC50 [4] was > 195 µM (not active), the AC50 (INS1) was 3.15 µM (active) and the AC50 [5] was 0.33 µM (active). For the same compound, the AC50 [6] was 28.9 µM (active) and the AC50 [7] was 3.12 µM (active).

In the case of `NC(=O)CCN1CCN(CCOC2Cc3cc(Cl)ccc3Sc3ccccc32)CC1` (configuration not stated), the EC50 [8] is reported as > 260 µM (inactive).

In the case of `CCCCCCCCCc1nc2sc3c(c2c(=O)n1NC(=O)c1ccc([N+](=O)[O-])cc1)CC(C)(C)OC3`, the EC50 [3] is reported as 3.71 µM (active), the EC50 (Streptokinase A) is reported as 2.17 µM (active) and the EC50 (Streptococcus) is reported as 39.8 µM (active).

For `C=CCN1C(=O)NC(=O)/C(=C(/CC)Nc2ccccc2NC(=O)CC)C1=O`, the IC50 [1] was > 47.1 µM (inactive) and the EC50 [2] was > 53 µM (inactive).

With `CC[C@H](C)[C@H]1O[C@]2(CC[C@@H]1C)C[C@@H]1C[C@@H](CC=C(C)[C@@H](O[C@H]3C[C@H](OC)[C@@H](O[C@H]4C[C@H](OC)[C@@H](O)[C@H](C)O4)[C@H](C)O3)[C@@H](C)C=CC=C3CO[C@@H]4[C@H](O)C(C)=C[C@@H](C(=O)O1)[C@]34O)O2` the AC50 [9] was 1.22 µM (active), the AC50 [5] was 6.32 µM (active) and the AC50 [6] was 31.2 µM (active). For the same compound, the AC50 [7] was 20.3 µM (active).

For `Cc1cccc(N2CCN(S(=O)(=O)c3ccc(Cl)nc3)CC2C)c1` (configuration not stated), the IC50 [1] was > 47.1 µM (inactive) and the EC50 [2] was > 53 µM (inactive).

With `CC(=O)C1(O)CCC2C3CC(C)C4=CC(=O)C=CC4(C)C3(F)C(O)CC21C` (configuration not stated) the IC50 [1] was > 47.1 µM (inactive) and the EC50 [2] was > 53 µM (inactive).

In the case of `CCOc1ncccc1C(=O)NCCc1c[nH]c2ccccc12`, the EC50 [8] is reported as > 260 µM (inactive).

With `COc1ccc2sc(-c3ccc(S(C)(=O)=O)cc3)c(C(=O)NCCc3c[nH]c4ccccc34)c2c1` the IC50 [1] was > 47.1 µM (inactive) and the EC50 [2] was > 53 µM (inactive).

For `O=C(NNC(=O)c1cccc(S(=O)(=O)N2CCCCC2)c1)c1ccccc1`, the IC50 [1] was > 47.1 µM (inactive) and the EC50 [2] was > 53 µM (inactive).

For `O=C(NCc1cccnc1)c1ccc(-c2ccc(F)c(F)c2)c2ccoc12`, the AC50 [5] was 3.48 µM (active), the AC50 [6] was 6.48 µM (active) and the AC50 [7] was 4.19 µM (active).

With `CCO/C(O)=C1\C(C)=Nc2nc3ccccc3n2C1c1ccncc1` (configuration not stated) the EC50 [10] was > 120 µM (not active), the EC50 [11] was > 120 µM (not active) and the EC50 [12] was > 120 µM (not active). For the same compound, the EC50 [8] was > 260 µM (inactive).

With `O=C(N/N=C/c1cc(Br)c(Br)o1)c1ccc2c(c1)OCCO2` the EC50 [13] was > 150 µM (inconclusive) and the EC50 [14] was 3.24 µM (active).

With `COC(=O)CC(NC(=O)c1ccc(C)cc1)c1ccc2c(c1)OCO2` (configuration not stated) the IC50 [1] was > 47.1 µM (inactive) and the EC50 [2] was > 53 µM (inactive).

With `CN(C/C=C/C#CC(C)(C)C)Cc1cccc2ccccc12` [TERBINAFINE HYDROCHLORIDE] the EC50 [13] was > 160 µM (inactive) and the EC50 [14] was 2.94 µM (inconclusive).
